Data taken from paper PMC11235165, “Delocalized quinolinium-macrocyclic peptides, an atypical chemotype for CNS penetration” (Science Advances, 2024).
Read-outs that look alike come from different tables or passages of the source.

Assays:
[1] = set-up: method as in PMID 26352530; conditions: cited from earlier work
[2] = tested on: Caco-2 cells; set-up: method as in PMID 26352530; conditions: cited from earlier work
[3] = mouse, in vivo; for Cl_obs: ip, 10 mg/kg
Protocol: (§1) The remaining five compounds were evaluated for plasma and brain levels in a pharmacokinetic experiment in mice.
Pharmacokinetic analysis.
(Cyprotex UK) using LCMSMS.

[4] = molecular target: hERG (Homo sapiens, UniProt Q12809); assay: hERG inhibition; format: biochemical; conditions: for inhibition at 25 µM: hERG (% inhibition at 25 μM)
hERG, sequence (Q12809 whole entry): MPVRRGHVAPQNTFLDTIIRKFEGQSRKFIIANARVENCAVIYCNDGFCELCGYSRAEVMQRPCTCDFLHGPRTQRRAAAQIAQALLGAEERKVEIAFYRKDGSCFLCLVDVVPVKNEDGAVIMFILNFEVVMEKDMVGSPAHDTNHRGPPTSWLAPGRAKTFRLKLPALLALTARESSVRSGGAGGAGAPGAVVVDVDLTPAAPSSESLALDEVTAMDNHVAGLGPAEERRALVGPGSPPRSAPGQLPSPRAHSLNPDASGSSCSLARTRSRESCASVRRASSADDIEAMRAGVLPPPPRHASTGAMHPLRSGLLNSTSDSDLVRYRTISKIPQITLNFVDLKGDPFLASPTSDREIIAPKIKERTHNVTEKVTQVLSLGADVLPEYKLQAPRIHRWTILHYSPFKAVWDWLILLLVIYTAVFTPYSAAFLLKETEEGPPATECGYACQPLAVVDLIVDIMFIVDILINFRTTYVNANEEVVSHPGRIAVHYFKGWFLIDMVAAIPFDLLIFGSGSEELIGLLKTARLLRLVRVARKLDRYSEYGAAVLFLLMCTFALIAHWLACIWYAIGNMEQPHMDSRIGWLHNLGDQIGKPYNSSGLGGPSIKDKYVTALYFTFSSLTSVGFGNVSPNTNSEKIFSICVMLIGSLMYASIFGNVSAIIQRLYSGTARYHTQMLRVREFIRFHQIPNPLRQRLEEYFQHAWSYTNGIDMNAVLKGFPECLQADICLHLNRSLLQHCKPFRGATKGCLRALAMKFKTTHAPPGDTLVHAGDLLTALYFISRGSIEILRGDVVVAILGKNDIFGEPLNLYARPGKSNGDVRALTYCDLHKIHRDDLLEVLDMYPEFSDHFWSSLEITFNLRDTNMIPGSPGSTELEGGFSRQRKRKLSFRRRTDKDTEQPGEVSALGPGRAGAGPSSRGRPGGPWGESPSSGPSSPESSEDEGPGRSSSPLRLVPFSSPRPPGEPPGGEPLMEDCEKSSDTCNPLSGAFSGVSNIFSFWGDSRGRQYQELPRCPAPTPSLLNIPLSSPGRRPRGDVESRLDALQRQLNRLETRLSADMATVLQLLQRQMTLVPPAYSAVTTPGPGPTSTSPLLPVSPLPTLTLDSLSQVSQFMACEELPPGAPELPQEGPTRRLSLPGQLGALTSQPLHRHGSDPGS

[5] = molecular target: CypD (Homo sapiens, UniProt P30405); assay: Fluorescence polarization cyclophilin D binding assay; conditions: Table S7; focused SAR set; read-out: CypD Ki
CypD, sequence (P30405 30-207): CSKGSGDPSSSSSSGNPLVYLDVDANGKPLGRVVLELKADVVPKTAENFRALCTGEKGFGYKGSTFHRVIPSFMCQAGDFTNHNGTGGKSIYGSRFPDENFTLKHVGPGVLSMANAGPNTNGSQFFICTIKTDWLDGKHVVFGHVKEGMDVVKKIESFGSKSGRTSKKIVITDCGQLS
Protocol: (§2) This was determined using a fluorescence polarization assay ([12]).
Fluorescence Polarization assay.
(§3) Briefly, titration of a single probe concentration
measure binding affinities.

[6] = Hepatocyte clearance (human); format: in vitro ADME; conditions: human hepatocytes
[7] = Hepatocyte clearance (mouse); format: in vitro ADME; conditions: mouse hepatocytes
[8] = molecular target: Cyclophilin A (CypA) (Homo sapiens, UniProt P62937); assay: Fluorescence polarization cyclophilin A binding assay; conditions: Table S7; focused SAR set; read-out: CypA Ki
Cyclophilin A (CypA), sequence (P62937 whole entry): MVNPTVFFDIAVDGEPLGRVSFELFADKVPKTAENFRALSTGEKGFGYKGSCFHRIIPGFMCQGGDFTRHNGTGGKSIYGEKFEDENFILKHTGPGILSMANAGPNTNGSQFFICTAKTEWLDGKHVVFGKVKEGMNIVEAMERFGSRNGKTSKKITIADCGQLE
Protocol: as §2
Fluorescence Polarization assay.
as §3
measure binding affinities.
FP -probe. Enzyme, inhibitor and
(ph7.4)) supplemented with 1 mM PMSF.

[9] = mouse, in vivo; for AUC(0-inf) / AUC(0-t) / half-life: ip, 10 mg/kg
Protocol: as §1
Pharmacokinetic analysis.
(Cyprotex UK) using LCMSMS.

[10] = in vivo; conditions: ABH, mouse, ip, 10 mg/kg; for level at 24 h: Brain concentrations at 24 hours
Protocol: as §1
Pharmacokinetic analysis.
(Cyprotex UK) using LCMSMS.

[11] = Brain tissue binding (fraction unbound); format: in vitro ADME; conditions: read-out: Brain tissue (fu)
Excerpt: Table 1. Key data for lead optimization. SD, standard deviation of the mean; SE, standard error of the mean; fu, fraction unbound; ND, not determined. | column: Brain tissue (fu)

[12] = tested on: CRFK and CRFK-TRIMCypA cells; assay: MTT viability of CRFK and CRFK-TRIMCypA cells; format: cell-based, Feline; conditions: 48 hours, up to 20 μM
Protocol: Assay for cellular CypA selectivity
bromide (MTT) assay (Sigma) was performed.
100 μL solubilisation solution (10 % SDS

[13] = Pharmacokinetic study, plasma and brain levels by LC-MS/MS;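 note: ABH mice, four per group, dosed intraperitoneally, plasma and brain taken at set times after euthanasia, drug levels quantified by LC-MS/MS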
Protocol: as §1
Pharmacokinetic analysis.
(Cyprotex UK) using LCMSMS.

[14] = tested on: mitochondrial permeability transition pore (mPTP); assay: Calcium retention capacity (CRC) assay in isolated liver mitochondria; format: biochemical, rat
[15] = Plasma protein binding (fraction unbound); format: in vitro ADME; conditions: read-out: Plasma protein (fu)
[16] = molecular target: T1, TRIM-CypA (Homo sapiens, UniProt P62937+Q6PIZ9); format: cell-based; conditions: CRFK-TRIMCypA cells; 0.5-20 μM; 48 hours; GFP-positive cells by flow cytometry
T1 construct: expressed in transfected cells; host or cells: CRFK (Crandell-Rees Feline Kidney) cells transduced with MLV EXN-TRIM-CypA vector, G418 selected
T1 sequence (P62937 2-165, one chain of several): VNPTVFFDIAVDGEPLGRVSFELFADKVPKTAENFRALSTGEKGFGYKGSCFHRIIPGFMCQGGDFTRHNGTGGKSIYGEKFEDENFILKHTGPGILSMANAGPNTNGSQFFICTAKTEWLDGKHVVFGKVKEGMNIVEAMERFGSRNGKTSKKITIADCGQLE

Question: Which PAMPA permeability [1] does the source give for COc1ccc2cc3[n+](cc2c1OC)CCc1cc2c(cc1-3)OCO2 [Berberine, berberine] here?
Answer: The PAMPA permeability was 1 to 1.2 ×10⁻⁶ cm/s.

Question: What about the “Caco-2 cell line permeability AP-BL” value ([2]; AP-BL) of the same compound?
Answer: Its value is 2.59 ×10⁻⁶ cm/s.

Question: What about the “Caco-2 cell line permeability BL-AP” value ([2]; BL-AP) of the same compound?
Answer: The value was 25.16 ×10⁻⁶ cm/s.

Question: With CC[C@@H]1NC(=O)[C@H]([C@H](O)[C@H](C)C/C=C/CCC[n+]2ccc(N3CCOCC3)c3ccc(C(F)(F)F)cc32)N(C)C(=O)[C@H](C(C)C)N(C)C(=O)[C@H](CC(C)C)N(C)C(=O)[C@H](CC(C)C)N(C)C(=O)[C@@H](C)NC(=O)[C@H](C)NC(=O)[C@H](CC(C)C)N(C)C(=O)[C@H](C(C)C)NC(=O)[C@H](CC(C)C)N(C)C(=O)CN(C)C1=O [JP1-138] as the compound, how does the “Brain AUC as % of the plasma AUC” value [3] read?
Answer: Its value is “about 2%”.

Question: What about the Cl_obs [3] of the same compound?
Answer: The Cl_obs was 4.43 × 10^−05 (mg/kg)/(ng/ml).hour.

Question: And the inhibition at 25 µM [4]?
Answer: Its inhibition at 25 µM is 37.7%.

Question: What about the Ki [5] of the same compound?
Answer: The Ki was 0.064 ± 0.016 µM.

Question: What about the hepatocyte CLint [6] of the same compound?
Answer: Its hepatocyte CLint is 7.62 µL/min/1e6 cells.

Question: What about the hepatocyte CLint [7] of the same compound?
Answer: The hepatocyte CLint was 9.61 µL/min/1e6 cells.

Question: And the Ki [8]?
Answer: The Ki was 0.042 µM.

Question: And the AUC [9]?
Answer: The AUC was 198 µg·h/mL.

Question: What about the AUC(0-inf) [9] of the same compound?
Answer: Its AUC(0-inf) is 226 µg·h/mL.

Question: And the AUC(0-t) [9]?
Answer: The AUC(0-t) was 216 µg·h/mL.

Question: And the half-life [9]?
Answer: The half-life was 5.81 h.

Question: And the level at time molar at 24 h [10]?
Answer: The level at time molar at 24 h was 391 nM.

Question: What about the level at 24 h [10] of the same compound?
Answer: The level at 24 h was 592 ng/mL.

Question: And the fraction unbound [11]?
Answer: The fraction unbound was 0.00084.

Question: What does the source list for CC[C@@H]1NC(=O)[C@H]([C@H](O)[C@H](C)C/C=C/CCC[n+]2ccc(N(C)C)c3ccc(C(F)(F)F)cc32)N(C)C(=O)[C@H](C(C)C)N(C)C(=O)[C@H](CC(C)C)N(C)C(=O)[C@H](CC(C)C)N(C)C(=O)[C@@H](C)NC(=O)[C@H](C)NC(=O)[C@H](CC(C)C)N(C)C(=O)[C@H](C(C)C)NC(=O)[C@H](CC(C)C)N(C)C(=O)CN(C)C1=O [JW76]?
Answer: Toxicity to non-restricting and restricting cells (MTT) [12]: not toxic at any concentration tested; hERG activity [4]: little hERG activity; inhibition at 25 µM [4]: 16.3%; hepatocyte CLint [6]: 5.62 µL/min/1e6 cells; hepatocyte CLint [7]: 6.81 µL/min/1e6 cells; level at 1 h ([13]; ABH, mouse, brain, ip, Brain ng/mL, mice, 1 h): 668 ng/mL; level at 4 h ([13]; ABH, mouse, brain, ip, Brain ng/mL, mice, 4 h): 545 ng/mL; level at 1 h ([13]; ABH, mouse, plasma, ip, Plasma (ng/mL), mice, 1 h): 50800 ng/mL; Detectability in the brain at 48 hours ([13]; longer-term pharmacokinetic study, 48 hours): not detectable; Brain ([13]; mice, 1 h): 668 ng/mL; AUC ([13]; mouse, in vivo): 67 µg·h/mL; CRC inhibition % ([14]; Table S4 / Fig. S2, rat liver mitochondria, 500 nM, (Treated-NonTreated)/NonTreated)*100): 54.7%; CRC % inhibition at 10 nM ([14]; Table S7, 10 nM): 32.9%; fraction unbound [15]: 0.0039; Rescue of HIV-1 infectivity of restricting (TRIM-CypA) cells [16]: rescued infectivity poorly and only at 20 μM

Question: What does the source list for CC[C@@H]1NC(=O)[C@H]([C@H](O)[C@H](C)C/C=C/CCC[n+]2ccc(N3CCCCC3)c3ccc(C(F)(F)F)cc32)N(C)C(=O)[C@H](C(C)C)N(C)C(=O)[C@H](CC(C)C)N(C)C(=O)[C@H](CC(C)C)N(C)C(=O)[C@@H](C)NC(=O)[C@H](C)NC(=O)[C@H](CC(C)C)N(C)C(=O)[C@H](C(C)C)NC(=O)[C@H](CC(C)C)N(C)C(=O)CN(C)C1=O [JP1-164]?
Answer: Cl_obs [3]: 7.09 × 10^−05 (mg/kg)/(ng/ml).hour; inhibition at 25 µM [4]: 14.2%; hepatocyte CLint [6]: 22.4 µL/min/1e6 cells; hepatocyte CLint [7]: 5.89 µL/min/1e6 cells; fraction unbound [15]: 0.69; AUC(0-inf) [9]: 141 µg·h/mL; AUC(0-t) [9]: 134 µg·h/mL; half-life [9]: 5.68 h; level at time molar at 24 h [10]: 380 nM; level at 24 h [10]: 574 ng/mL; fraction unbound [11]: 0.01
